Where “and” joins values, the source holds several entries; their conditions need not be identical. Equal entries are not always repeated. Inconclusive results and toxic doses are left out. Peptide text beside a SMILES is read from it. * marks the point of attachment. Boc = CC(C)(C)OC(=O)*
Test system: L1210 leukemia ip in BDF1 mice, survival T/C
Experiment: NCI In Vivo Anticancer Drug Screen. Data for tumor model L1210 Leukemia (intraperitoneal) in B6D2F1 (BDF1) mice
Settings: endpoint: mean survival time, higher = longer survival
How it was run: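 Survival endpoint. Drug-treated group vs vehicle group, expressed as T divided by C. Tumor passaged by transplantation.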

[1] = dose: 100.0 mg/kg/injection, schedule: Q01DX001 (ip), vehicle: Klucel (hydroxypropylcellulose) (HPC)
[2] = dose: 100.0 mg/kg/injection, schedule: Q04DX003 (ip), vehicle: Klucel (hydroxypropylcellulose) (HPC)
[3] = dose: 200.0 mg/kg/injection, schedule: Q01DX001 (ip), vehicle: Klucel (hydroxypropylcellulose) (HPC)
[4] = dose: 200.0 mg/kg/injection, schedule: Q04DX003 (ip), vehicle: Klucel (hydroxypropylcellulose) (HPC)
[5] = dose: 400.0 mg/kg/injection, schedule: Q01DX001 (ip), vehicle: Klucel (hydroxypropylcellulose) (HPC)
[6] = dose: 400.0 mg/kg/injection, schedule: Q04DX003 (ip), vehicle: Klucel (hydroxypropylcellulose) (HPC)
[7] = dose: 100.0 mg/kg/injection, schedule: Q01DX001 (ip), vehicle: carboxymethylcellulose (CMC)
[8] = dose: 200.0 mg/kg/injection, schedule: Q01DX001 (ip), vehicle: carboxymethylcellulose (CMC)
[9] = dose: 400.0 mg/kg/injection, schedule: Q01DX001 (ip), vehicle: carboxymethylcellulose (CMC)
[10] = dose: 100.0 mg/kg/injection, schedule: Q01DX009 (ip), vehicle: Klucel (hydroxypropylcellulose) (HPC)
[11] = dose: 200.0 mg/kg/injection, schedule: Q01DX009 (ip), vehicle: Klucel (hydroxypropylcellulose) (HPC)
[12] = dose: 400.0 mg/kg/injection, schedule: Q01DX009 (ip), vehicle: Klucel (hydroxypropylcellulose) (HPC)
[13] = dose: 100.0 mg/kg/injection, schedule: Q04DX002 (ip), vehicle: saline with Tween-80
[14] = dose: 200.0 mg/kg/injection, schedule: Q04DX002 (ip), vehicle: saline with Tween-80
[15] = dose: 400.0 mg/kg/injection, schedule: Q04DX002 (ip), vehicle: saline with Tween-80
[16] = dose: 50.0 mg/kg/injection, schedule: Q01DX001 (ip), vehicle: carboxymethylcellulose (CMC)
[17] = dose: 100.0 mg/kg/injection, schedule: Q04DX002 (ip), vehicle: Klucel (hydroxypropylcellulose) (HPC)
[18] = dose: 200.0 mg/kg/injection, schedule: Q04DX002 (ip), vehicle: Klucel (hydroxypropylcellulose) (HPC)
[19] = dose: 400.0 mg/kg/injection, schedule: Q04DX002 (ip), vehicle: Klucel (hydroxypropylcellulose) (HPC)
[20] = dose: 50.0 mg/kg/injection, schedule: Q04DX003 (ip), vehicle: Klucel (hydroxypropylcellulose) (HPC)
[21] = dose: 50.0 mg/kg/injection, schedule: Q01DX009 (ip), vehicle: Klucel (hydroxypropylcellulose) (HPC)

For `CCCCC(/C=N/N=C(N)N)=N\N=C(N)N`, the T/C (dose: 15.0 mg/kg/injection, schedule: Q01DX Z (ip), vehicle: saline) was 95 % of control, the T/C (dose: 15.0 mg/kg/injection, schedule: Q01DX Z (oral), vehicle: saline) was 98 % of control and the T/C (dose: 30.0 mg/kg/injection, schedule: Q01DX Z (ip), vehicle: saline) was 103 % of control. The T/C (dose: 30.0 mg/kg/injection, schedule: Q01DX Z (oral), vehicle: saline) was 91 % of control, the T/C (dose: 60.0 mg/kg/injection, schedule: Q01DX Z (oral), vehicle: saline) was 91 % of control and the T/C (dose: 120.0 mg/kg/injection, schedule: Q01DX Z (oral), vehicle: saline) was 94 % of control.

With `NC(=O)Cc1ccc2c(c1)[nH]c1ccccc12` the T/C [1] was 96 % of control, the T/C [2] was 102 % of control and the T/C [3] was 94 % of control. For the same molecule, the T/C [4] was 105 % of control, the T/C [5] was 100 % of control and the T/C [6] was 103 % of control.

With `Cc1nc(N(C)C)nc(C)c1C#[N+][O-]` the T/C [7] was 94 % of control.

With `CCOC(=O)n1cccc(C)c1=N` the T/C [7] was 102 % of control, the T/C [8] was 100 % of control and the T/C [9] was 102 % of control.

With `CCOC(=O)c1c(O)csc1C` the T/C [10] was 93 % of control, the T/C [2] was 98 % of control and the T/C [11] was 90 % of control. For the same molecule, the T/C [4] was 101 % of control, the T/C [12] was 109 % of control and the T/C [6] was 97 % of control.

`CCCCN(CCCC)CC(O)c1cc(-c2ccc(C(F)(F)F)cc2)nc2c(Cl)cc(Cl)cc12` (stereo not given) was tested, and the T/C [13] was 100 % of control, the T/C [14] was 92 % of control and the T/C [15] was 95 % of control.

With `NNC(=O)c1ccc(N)cc1` the T/C [16] was 95 % of control, the T/C (dose: 50.0 mg/kg/injection, schedule: Q01DX009 (ip), vehicle: saline with Tween-80) was 93 % of control and the T/C [7] was 86 % of control. For the same molecule, the T/C (dose: 100.0 mg/kg/injection, schedule: Q01DX009 (ip), vehicle: saline with Tween-80) was 104 % of control, the T/C [8] was 95 % of control and the T/C (dose: 200.0 mg/kg/injection, schedule: Q01DX009 (ip), vehicle: saline with Tween-80) was 100 % of control. For the same molecule, the T/C [9] was 103 % of control.

With `CCCCCCCCCCCCCCCCS(=O)(=O)N/N=C(/c1ccc(N)cc1Cl)N1CCCCC1` the T/C [2] was 86 % of control, the T/C [4] was 94 % of control and the T/C [6] was 91 % of control.

With `O=c1[nH]c2cc(Cl)cc([N+](=O)[O-])c2c2c(Cl)cc(Cl)cc12` the T/C [10] was 100 % of control, the T/C [2] was 95 % of control and the T/C [11] was 101 % of control. The T/C [4] was 97 % of control, the T/C [12] was 104 % of control and the T/C [6] was 92 % of control.

`O=C(NC(=S)Nc1ccc(S(=O)(=O)c2ccc(NC(=S)NC(=O)c3ccccc3)cc2)cc1)c1ccccc1` was tested, and the T/C [10] was 102 % of control, the T/C [17] was 94 % of control and the T/C [11] was 94 % of control. For the same molecule, the T/C [18] was 94 % of control, the T/C [12] was 91 % of control and the T/C [19] was 102 % of control.

For `COC(=O)C(Cc1ccccc1)NC(=O)C(Cc1ccccc1)NC(=O)OC(C)(C)C` (stereo not drawn) (Boc-Phe-Phe-OMe; configuration not given here), the T/C [17] was 94 % of control, the T/C [18] was 101 % of control and the T/C [19] was 108 % of control.

`O=C(Cl)C1C2C=CC(C2)C1C(=O)Cl` (stereo not given) was tested, and the T/C (dose: 50.0 mg/kg/injection, schedule: Q01DX001 (ip), vehicle: saline) was 108 % of control and the T/C (dose: 100.0 mg/kg/injection, schedule: Q01DX001 (ip), vehicle: saline) was 97 % of control.

`O=c1[nH]c2c(cc1Br)C(Br)C(Br)C=C2` (stereo not given) was tested, and the T/C (dose: 100.0 mg/kg/injection, schedule: Q01DX001 (ip), vehicle: other) was 105 % of control and the T/C (dose: 200.0 mg/kg/injection, schedule: Q01DX001 (ip), vehicle: other) was 108 % of control.

In the case of `O=C(/C=C/c1ccc(Cl)cc1)CCN1CCC2CCC(C2)C1` (stereo not given), the T/C [16] is reported as 92 % of control and the T/C [7] is reported as 95 % of control.

For `O=C1CC(=P(c2ccccc2)(c2ccccc2)c2ccccc2)C(=O)N1c1cccc2ccc(O)cc12`, the T/C (dose: 75.0 mg/kg/injection, schedule: Q01DX001 (ip), vehicle: saline) was 101 % of control, the T/C (dose: 150.0 mg/kg/injection, schedule: Q01DX001 (ip), vehicle: saline) was 96 % of control and the T/C (dose: 300.0 mg/kg/injection, schedule: Q01DX001 (ip), vehicle: saline) was 95 % of control.

For `Cc1nc(SCc2ccccc2)nc(N)c1CN`, the T/C [20] was 113 % of control, the T/C [1] was 93 % of control and the T/C [2] was 100 % of control. For the same molecule, the T/C [3] was 98 % of control and the T/C [4] was 104 % of control.

`C=CCc1ccccc1NC(=O)NCCCl` was tested, and the T/C [21] was 106 % of control, the T/C [10] was 100 % of control and the T/C [2] was 93 % of control. For the same molecule, the T/C [11] was 111 % of control and the T/C [4] was 104 % of control.

In the case of `O=[N+]([O-])c1ccc(C[n+]2ccc3ccccc3c2)cc1`, the T/C (dose: 12.5 mg/kg/injection, schedule: Q01DX009 (ip), vehicle: saline) is reported as 96 % of control, the T/C (dose: 12.5 mg/kg/injection, schedule: Q04DX003 (ip), vehicle: saline) is reported as 97 % of control and the T/C (dose: 25.0 mg/kg/injection, schedule: Q01DX009 (ip), vehicle: saline) is reported as 95 % of control. For the same molecule, the T/C (dose: 25.0 mg/kg/injection, schedule: Q04DX003 (ip), vehicle: saline) was 92 % of control, the T/C (dose: 50.0 mg/kg/injection, schedule: Q01DX009 (ip), vehicle: saline) was 101 % of control and the T/C (dose: 50.0 mg/kg/injection, schedule: Q04DX003 (ip), vehicle: saline) was 92 % of control.

With `COC(=O)C1(C)CCCC2(C)C3CCC4(C)CC3(CCC12)OC4C` (stereo not given) the T/C [13] was 95 % of control, the T/C [14] was 100 % of control and the T/C [15] was 89 % of control.

In the case of `Nc1nc(=S)c2ncn(C3OC(CO)CC3O)c2[nH]1` (stereo not given), the T/C (dose: 10.0 mg/kg/injection, schedule: Q01DX009 (ip), vehicle: other) is reported as 160 % of control, the T/C (dose: 88.8 mg/kg/injection, schedule: Q01DX001 (ip), vehicle: carboxymethylcellulose (CMC)) is reported as 162 % of control and the T/C [8] is reported as 189 % of control.

In the case of `Cc1nc(Cl)c(C#N)c(C)c1[N+](=O)[O-]`, the T/C (dose: 100.0 mg/kg/injection, schedule: Q04DX003 (ip), vehicle: saline) is reported as 95 % of control and the T/C (dose: 200.0 mg/kg/injection, schedule: Q04DX003 (ip), vehicle: saline) is reported as 90 % of control.

In the case of `O=Cc1c(Cl)n(-c2ccccc2)c2c(C=O)cccc12`, the T/C (dose: 25.0 mg/kg/injection, schedule: Q04DX003 (ip), vehicle: Klucel (hydroxypropylcellulose) (HPC)) is reported as 97 % of control, the T/C [20] is reported as 100 % of control and the T/C [2] is reported as 97 % of control.

`Cc1cccc(OS(C)(=O)=O)c1N(S(C)(=O)=O)S(C)(=O)=O` was tested, and the T/C (dose: 50.0 mg/kg/injection, schedule: Q01DX001 (ip), vehicle: Klucel (hydroxypropylcellulose) (HPC)) was 97 % of control, the T/C [1] was 108 % of control and the T/C [3] was 95 % of control. For the same molecule, the T/C [5] was 95 % of control.

`CC(C)N=C(N)CSS(=O)(=O)O` was tested, and the T/C (dose: 25.0 mg/kg/injection, schedule: Q04DX002 (ip), vehicle: Klucel (hydroxypropylcellulose) (HPC)) was 101 % of control, the T/C (dose: 50.0 mg/kg/injection, schedule: Q04DX002 (ip), vehicle: Klucel (hydroxypropylcellulose) (HPC)) was 97 % of control and the T/C [17] was 101 % of control and 102 % of control.

For `Nc1cc(NC(c2ccccc2)c2ccccc2)c(N)c(N)n1`, the T/C (dose: 100.0 mg/kg/injection, schedule: Q01DX001 (ip), vehicle: gum acacia) was 88 % of control, the T/C (dose: 200.0 mg/kg/injection, schedule: Q01DX001 (ip), vehicle: gum acacia) was 90 % of control and the T/C (dose: 400.0 mg/kg/injection, schedule: Q01DX001 (ip), vehicle: gum acacia) was 92 % of control.

`CCC(=O)C1(c2ccccc2)CCNCC1` was tested, and the T/C (dose: 25.0 mg/kg/injection, schedule: Q01DX009 (ip), vehicle: Klucel (hydroxypropylcellulose) (HPC)) was 102 % of control, the T/C [21] was 106 % of control and the T/C [10] was 98 % of control and 118 % of control. The T/C [18] was 106 % of control.
